# Data published in publication PMC7309225, “Synthesis, Biodistribution, and Radiation Dosimetry of a Novel mGluR5 Radioligand: ^18F-AZD9272” (ACS Chemical Neuroscience, 2020).
# Several values for one entry are separate records, joined by “and”; a condition that tells them apart may be missing. Equal values may be shown once.
# Assays:
# [1] = Stability of formulated radioligand in PBS (analytical radio-HPLC); assay type: physicochemical
# Method: The radiochemical purity, identity, and stability of ^18F-AZD9272 was determined by using an analytical HPLC system which included a ACE RP column (C18, 3.9 Ø × 250 mm, 5 μm particle size), Merck-Hitatchi L-7100 Pump, L-7400 UV detector, and GM tube for radioactivity detection (VWR International). The mobile phase CH3CN/0.1% TFA with a gradient HPLC method (10–90% in 8 min) and flow rate of 3 mL/min was used to elute the product. The effluent was monitored with a UV absorbance detector (λ = 270 nm) coupled to a radioactive detector (b-flow, Beckman, Fullerton, CA). The retention time (Rt) of ^18F-AZD9272 was 4–5 min. The identity of ^18F-AZD9272 was confirmed by using HPLC with the coinjection of the authentic nonradioactive AZD9272 (3-fluoro-5-(3-(5-fluoropyridin-2-yl)-1,2,4-oxadiazol-5-yl)benzonitrile) standard.
# [2] = tested on: monoamine oxidase-B (MAO-B); set-up: method as in PMID 23541825; conditions: NHP brain; cited from earlier work
# [3] = Whole body PET and radiation dosimetry (OLINDA/EXM 1.1); assay type: in vivo, cynomolgus monkey; conditions: for Estimated radiation dose: human estimate, adult male model
# Method: Two female cynomolgus monkeys (NHP3: 7420 g and NHP4: 6360 g) were used in this study. Anesthesia was induced by intramuscular injection of ketamine hydrochloride (approximately 10 mg/kg) at AFL and maintained by intravenous infusion of ketamine (4 mg/kg/h) and xylazine (0.4 mg/kg/h) with a pump. The body of the NHP was immobilized using a vacuum pad. Body temperature was maintained by using a Bair Hugger system (model 505, Arizant Healthcare, MN) and monitored with an esophageal thermometer. Heart rate, blood pressure, respiratory rate, and oxygen saturation were continuously monitored throughout the experiments. Fluid balance was maintained by continuous infusion of saline.
# Whole-body PET scans were conducted using a GE Discovery PET/CT 710 system (GE Healthcare, Waukesha, WI). One low-dose CT scan was performed before intravenous administration of ^18F-AZD9272 for attenuation correction. Then five series of PET acquisitions, each covering five axial fields of view (AFOV), were conducted. The five PET series consisted of two 20 s × 5 AFOV, three 40 s × 5 AFOV, three 80 s × 5 AFOV, three 160 s × 5 AFOV, and eight 240 s × 5 AFOV. The total duration of the whole-body PET measurement was around 4 h. PET images were reconstructed with a 3D ordered-subset expectation maximization (OSEM) algorithm with three iterations and 18 subsets, including the time-of-flight information (VUE Point FX) and the point spread function correction (Sharp IR). A 2D Gaussian filter with 5.5 mm cutoff was used.
# ROIs were drawn for the brain, heart, liver, lung, kidney, gall bladder, bone (lumbar vertebrae), urinary bladder, stomach, small intestine, spleen, and pancreas with the help of the CT images for anatomic landmarks. The time–activity curve was expressed as the percentage of the injected dose (%ID) calculated as follows: decay-corrected radioactivity (Bq/cc) × ROI volume (cc)/injected dose (Bq) × 100.
# Estimates of the absorbed radiation dose in humans were calculated with OLINDA/EXM 1.1 (Organ Level INternal Dose Assessment Code) software, using the adult male (70 kg) reference model.[36] The fractional uptake in NHP organs was assumed to be equal to the uptake in human organs.
# [4] = Radiometabolite analysis of plasma by radio-HPLC during PET; assay type: in vivo, cynomolgus monkey
# Method: An automated blood sampling system (ABSS) was used to measure the continuous radioactivity for the first 3 min after the radioligand injection. Then, blood sampling was performed manually for the measurement of metabolism and radioactivity at 5, 15, 30, 60, 90, and 120 min after the injection. A reversed-phase radio-HPLC method was used to determine the amount of unchanged ^18F-AZD9272 and its radioactive metabolites in NHP plasma.[35]
compound,measurement,setting,value
"N#Cc1cc(F)cc(-c2nc(-c3ccc([18F])cn3)no2)c1 [^18F-AZD9272, 3-fluoro-5-(3-(5-[^18F]fluoropyridin-2-yl)-1,2,4-oxadiazol-5-yl)benzonitrile]",Radiochemical purity after storage (stability),[1]; 2 h after formulation in sterile phosphate buffered solution (pH = 7.4),> 99%
same,Stability in PBS buffered solution,"[1]; pH = 7.4, duration of 120 min",stable
same,Specific binding inhibited by administration of a MAO-B-selective ligand,[2],approximately 90%
same,Estimated radiation dose,"[3]; LLI wall, NHP3",26.8 μSv/MBq
same,Estimated radiation dose,"[3]; LLI wall, NHP4",27.9 μSv/MBq
same,Estimated radiation dose,"[3]; LLI wall, mean",27.4 μSv/MBq
same,Whole body organ uptake (PET),[3]; NHP whole body,"High uptakes were seen in liver and small intestine, followed by brain and kidney"
same,Estimated radiation dose,"[3]; ULI wall, NHP3",65.7 μSv/MBq
same,Estimated radiation dose,"[3]; ULI wall, NHP4",69.4 μSv/MBq
same,Estimated radiation dose,"[3]; ULI wall, mean",67.6 μSv/MBq
same,Estimated radiation dose,"[3]; adrenals, NHP3",14.6 μSv/MBq
same,Estimated radiation dose,"[3]; adrenals, NHP4",14.1 μSv/MBq
same,Estimated radiation dose,"[3]; adrenals, mean",14.4 μSv/MBq
same,Estimated radiation dose,"[3]; brain, NHP3",13.0 μSv/MBq
same,Estimated radiation dose,"[3]; brain, NHP4",17.4 μSv/MBq
same,Estimated radiation dose,"[3]; brain, mean",15.2 μSv/MBq
same,Estimated radiation dose,"[3]; breasts, NHP3",8.0 μSv/MBq
same,Estimated radiation dose,"[3]; breasts, NHP4",7.9 μSv/MBq
same,Estimated radiation dose,"[3]; breasts, mean",7.9 μSv/MBq
same,Estimated radiation dose,"[3]; effective dose, NHP3",17.4 μSv/MBq
same,Estimated radiation dose,"[3]; effective dose, NHP4",17.4 μSv/MBq
same,Estimated radiation dose,"[3]; effective dose, mean",17.4 μSv/MBq
same,Estimated radiation dose,"[3]; gallbladder wall, NHP3",21.3 μSv/MBq
same,Estimated radiation dose,"[3]; gallbladder wall, NHP4",21.1 μSv/MBq
same,Estimated radiation dose,"[3]; gallbladder wall, mean",21.2 μSv/MBq
same,Estimated radiation dose,"[3]; heart wall, NHP3",17.5 μSv/MBq
same,Estimated radiation dose,"[3]; heart wall, NHP4",19.0 μSv/MBq
same,Estimated radiation dose,"[3]; heart wall, mean",18.3 μSv/MBq
same,"Human radiation dose estimate, upper large intestine (ULI) wall",[3]; highest-dose organ,around 0.068 mSv/MBq
same,Radioactivity that can be injected to humans,[3]; if the limit is 10 mSv for the total radiation exposure,570 MBq
same,Estimated radiation dose,"[3]; kidneys, NHP3",42.3 μSv/MBq
same,Estimated radiation dose,"[3]; kidneys, NHP4",29.6 μSv/MBq
same,Estimated radiation dose,"[3]; kidneys, mean",36.0 μSv/MBq
same,Estimated radiation dose,"[3]; liver, NHP3",47.0 μSv/MBq
same,Estimated radiation dose,"[3]; liver, NHP4",45.7 μSv/MBq
same,Estimated radiation dose,"[3]; liver, mean",46.4 μSv/MBq
same,Estimated radiation dose,"[3]; lungs, NHP3",12.7 μSv/MBq
same,Estimated radiation dose,"[3]; lungs, NHP4",11.8 μSv/MBq
same,Estimated radiation dose,"[3]; lungs, mean",12.3 μSv/MBq
same,"Human radiation dose estimate, most organs",[3]; most organs,0.01–0.02 mSv/MBq
same,Estimated radiation dose,"[3]; muscle, NHP3",10.1 μSv/MBq
same,Estimated radiation dose,"[3]; muscle, NHP4",10.0 μSv/MBq
same,Estimated radiation dose,"[3]; muscle, mean",10.1 μSv/MBq
same,Estimated radiation dose,"[3]; osteogenic cells, NHP3",14.5 μSv/MBq
same,Estimated radiation dose,"[3]; osteogenic cells, NHP4",14.5 μSv/MBq
same,Estimated radiation dose,"[3]; osteogenic cells, mean",14.5 μSv/MBq
same,Estimated radiation dose,"[3]; ovaries, NHP3",18.2 μSv/MBq
same,Estimated radiation dose,"[3]; ovaries, NHP4",18.6 μSv/MBq
same,Estimated radiation dose,"[3]; ovaries, mean",18.4 μSv/MBq
same,Estimated radiation dose,"[3]; pancreas, NHP3",16.4 μSv/MBq
same,Estimated radiation dose,"[3]; pancreas, NHP4",15.4 μSv/MBq
same,Estimated radiation dose,"[3]; pancreas, mean",15.9 μSv/MBq
same,Estimated radiation dose,"[3]; red marrow, NHP3",10.7 μSv/MBq
same,Estimated radiation dose,"[3]; red marrow, NHP4",10.7 μSv/MBq
same,Estimated radiation dose,"[3]; red marrow, mean",10.7 μSv/MBq
same,Estimated radiation dose,"[3]; skin, NHP3",7.4 μSv/MBq
same,Estimated radiation dose,"[3]; skin, NHP4",7.4 μSv/MBq
same,Estimated radiation dose,"[3]; skin, mean",7.4 μSv/MBq
same,Estimated radiation dose,"[3]; small intestine, NHP3",58.9 μSv/MBq
same,Estimated radiation dose,"[3]; small intestine, NHP4",62.1 μSv/MBq
same,Estimated radiation dose,"[3]; small intestine, mean",60.5 μSv/MBq
same,Estimated radiation dose,"[3]; spleen, NHP3",9.6 μSv/MBq
same,Estimated radiation dose,"[3]; spleen, NHP4",8.4 μSv/MBq
same,Estimated radiation dose,"[3]; spleen, mean",9.0 μSv/MBq
same,Estimated radiation dose,"[3]; stomach wall, NHP3",13.2 μSv/MBq
same,Estimated radiation dose,"[3]; stomach wall, NHP4",13.1 μSv/MBq
same,Estimated radiation dose,"[3]; stomach wall, mean",13.2 μSv/MBq
same,Estimated radiation dose,"[3]; testes, NHP3",8.7 μSv/MBq
same,Estimated radiation dose,"[3]; testes, NHP4",8.6 μSv/MBq
same,Estimated radiation dose,"[3]; testes, mean",8.7 μSv/MBq
same,Estimated radiation dose,"[3]; thymus, NHP3",9.7 μSv/MBq
same,Estimated radiation dose,"[3]; thymus, NHP4",9.6 μSv/MBq
same,Estimated radiation dose,"[3]; thymus, mean",9.6 μSv/MBq
same,Estimated radiation dose,"[3]; thyroid, NHP3",9.1 μSv/MBq
same,Estimated radiation dose,"[3]; thyroid, NHP4",9.1 μSv/MBq
same,Estimated radiation dose,"[3]; thyroid, mean",9.1 μSv/MBq
same,Estimated radiation dose,"[3]; total body, NHP3",12.2 μSv/MBq
same,Estimated radiation dose,"[3]; total body, NHP4",12.1 μSv/MBq
same,Estimated radiation dose,"[3]; total body, mean",12.2 μSv/MBq
same,Estimated radiation dose,"[3]; urinary bladder wall, NHP3",11.3 μSv/MBq
same,Estimated radiation dose,"[3]; urinary bladder wall, NHP4",11.4 μSv/MBq
same,Estimated radiation dose,"[3]; urinary bladder wall, mean",11.4 μSv/MBq
same,Estimated radiation dose,"[3]; uterus, NHP3",16.1 μSv/MBq
same,Estimated radiation dose,"[3]; uterus, NHP4",16.3 μSv/MBq
same,Estimated radiation dose,"[3]; uterus, mean",16.2 μSv/MBq
same,Parent compound in plasma,[4]; 5 min after injection,approximately 95%
same,Percentage of parent radioligand in plasma,"[4]; 120 min after injection, individual animals (n = 2)",59% and 64%
